Laboratory results taken from patent publication US12227895B2, “Odor reduction and bacterial control on a textile material” (Microban Products Company, priority 2019, dated 2025).
Read-outs that look alike come from different tables or passages of the source.

Assays:
bacteria = conditions: for efficacy (AATCC TM100): salts only, zero home launderings, liquor pH not lowered (FIG. 1); for efficacy after home launderings: after 25 home launderings (FIG. 3)
Kp = conditions: Polyester Fabric, Mathis JFO Exhaust
Description: High dye load samples are the most difficult to process using exhaustion dye techniques. A series of tests were run using PET (polyester) and polyspandex fabrics. In this test series the materials were tested in two different laboratories using container-style lab exhaust equipment. Alongside the treated samples, untreated fabrics were run for comparison.
The fabrics were tested as-made and after 25 home launderings (25 HL). Each home laundering was performed in a commercial front-load washing machine per AATCC Monograph M6 using Tide HE detergent.
Trials have been performed in a small Thiele exhaustion pilot unit, as well as in Mathis JFO pilot scale equipment, both of which use jets to forcibly impregnate the textile with the exhaust liquor.
Reductive Clears—Method A is 1% Na Hydrosulfite whereas Method B is 0.3% NaOH, 0.4% Na Hydrosulfite. “owg” is “on weight of goods”.

Structure (SMILES) | efficacy (AATCC TM100) (bacteria) | efficacy after home launderings (bacteria) | other results
C/C=C/C=C/C(=O)[O-].[K+] [potassium sorbate, reference compound] | relatively low levels of efficacy |  | 
C/C=C/C=C/C(=O)O [sorbic acid] |  | able to maintain efficacy following multiple washing cycles | efficacy after a reductive clear (bacteria; exhausted on polyester fabric, 0 HL (FIG. 4)): demonstrate efficacy after the reductive clear
O=C([O-])CC(O)(CC(=O)[O-])C(=O)[O-].[Na+].[Na+].[Na+] [trisodium citrate, reference compound] | relatively low levels of efficacy |  | 
O=C([O-])c1ccccc1.[Na+] [sodium benzoate] | relatively low levels of efficacy |  | Percent reduction (Kp; 0 HL, sodium benzoate acidified with citric acid to pH<3.6, run as Example 4): 99.50%; Percent reduction (Kp; 25 HL, sodium benzoate acidified with citric acid to pH<3.6): 99.50%
O=C(O)CC(O)(CC(=O)O)C(=O)O [Citric acid, citric acid] |  | not able to maintain efficacy | 
